Twelve sequences from patent US10906938B2, “Cell epitopes and combination of cell epitopes for use in the immunotherapy of myeloma and other cancers” (Immatics Biotechnologies GmbH, priority 2015, dated 2021) can be followed below.

This assay has as its system MM.1S cells. Kind of assay: HLA class I ligand presentation upon carfilzomib treatment on MM.1S cells (LC-MS/MS). In kind it is cell-based, human. Conditions: MM.1S cells; for modulation upon carfilzomib-treatment 24 #1 / modulation upon carfilzomib-treatment 24 #2 / modulation upon carfilzomib-treatment 24 #3: 24 h after carfilzomib treatment (100 nM, 1 h); for modulation upon carfilzomib-treatment 24 #1 / modulation upon carfilzomib-treatment 48 #1: biological replicate #1; for modulation upon carfilzomib-treatment 24 #1 / modulation upon carfilzomib-treatment 24 #2 / modulation upon carfilzomib-treatment 24 #3 / modulation upon carfilzomib-treatment 48 #1 / modulation upon carfilzomib-treatment 48 #2 / modulation upon carfilzomib-treatment 48 #3: vs mock-treated controls; for modulation upon carfilzomib-treatment 24 #2 / modulation upon carfilzomib-treatment 48 #2: biological replicate #2; for modulation upon carfilzomib-treatment 24 #3 / modulation upon carfilzomib-treatment 48 #3: biological replicate #3; for modulation upon carfilzomib-treatment 48 #1 / modulation upon carfilzomib-treatment 48 #2 / modulation upon carfilzomib-treatment 48 #3: 48 h after carfilzomib treatment (100 nM, 1 h). Details: key to modulation upon carfilzomib-treatment 24 #1 / modulation upon carfilzomib-treatment 24 #2 / modulation upon carfilzomib-treatment 24 #3 / modulation upon carfilzomib-treatment 48 #1 / modulation upon carfilzomib-treatment 48 #2 / modulation upon carfilzomib-treatment 48 #3: −1: significantly down-modulated; 0: not signifcant/not detected; 1: significantly up-modulated. Here is the method:
HLA class I and II molecules were isolated using standard immunoaffinity purification as described using the pan-HLA class I specific mAb W6/32, the pan-HLA class II specific mAb T039 and the HLA-DR specific mAB L243 (produced in house).
HLA ligand extracts were analyzed in 5 technical replicates as described previously. In brief, peptide samples were separated by nanoflow HPLC (RSLCnano, ThermoFisher) using a 50 μm×25 cm PepMap RSLC column (Thermo Fisher) and a gradient ranging from 2.4 to 32.0% acetonitrile over the course of 90 min. Eluting peptides were analyzed in an online coupled LTQ Orbitrap XL mass spectrometer (Thermo Fisher) using a top 5 CID (collision induced dissociation) fragmentation method.
Data processing was performed as described previously. In brief, the Mascot search engine (Mascot 2.2.04; Matrix Science, London, UK) was implemented to search the human proteome as comprised in the Swiss-Prot database (20,279 reviewed protein sequences, September 2013) without enzymatic restriction. Potential mutated HLA ligands were searched implementing a database containing the human proteome concatenated with proteins containing single amino acid variants (SAVs) listed in the COSMIC database (http://cancer.sanger.ac.uk/cosmic/). Only recurrent SAVs described in 2 or more samples of hematological origin were included. Oxidized methionine was allowed as a dynamic modification. The false discovery rate was estimated using the Percolator algorithm and set to 5%. Peptide lengths were limited to 8-12 amino acids for HLA class I and 12-25 amino acids for HLA class II. Protein inference was disabled, allowing for multiple protein annotations of peptides. HLA annotation was performed using SYFPEITHI [46] or an extended in-house database. Experimental validation of peptide identifications and HLA annotations was performed by mass spectrometric and functional characterization of synthetic peptides for a subset of peptides.
The inventors quantitatively assessed HLA class I ligand presentation during proteasome inhibitor therapy. Observed was a considerable plasticity of the HLA class I ligandome after treatment with carfilzomib with 17.9±1.1% of MM.1S ligands and 11.2±0.7% of U266 ligands (mean of three biological replicates ±s.d.) showing significant modulation (fold-change ≥4, Po0.01 after Benjamini-Hochberg correction) at t24 h compared with mock-treated controls. Briefly, Cultured MCLs (MM.1S and U266) and primary myeloma samples were incubated with carfilzomib (100 nM, Kyprolis®, available, e.g., from Onyx Pharmaceuticals, Inc.) as an example for a proteasome inhibitor for a 1-h period, followed by three washes in PBS (Gibco) and recultured for additional 24 or 48 h. Controls were incubated with vehicle control (glucose 5%) for 1 h, followed by identical washing and incubation for 24 or 48 h. Experiments were conducted in three biological replicates where indicated.

Where [1] appears, read: 24 h after carfilzomib treatment.

Turning to EYGHIPSF, the “modulation upon carfilzomib-treatment 24 #1” value was 1, the “modulation upon carfilzomib-treatment 24 #2” value amounted to 1, the “modulation upon carfilzomib-treatment 24 #3” value is 0 and the “modulation upon carfilzomib-treatment 48 #1” value was 0. For the same sequence, the “modulation upon carfilzomib-treatment 48 #2” value is 0 and the “modulation upon carfilzomib-treatment 48 #3” value came to 0.

For “EYGHIPSF (listed as Homo sapiens) [SEQ ID NO: 42]”, under setting [1], the “biological replicates with significant up-modulation” value is 2/3 and the “modulation of peptide presentation upon carfilzomib treatment” value is “significant up-modulation”.

FAQIISVALI: the “modulation upon carfilzomib-treatment 24 #1” value is reported as 0, the “modulation upon carfilzomib-treatment 24 #2” value was determined as 0, the “modulation upon carfilzomib-treatment 24 #3” value is given as 0 and the “modulation upon carfilzomib-treatment 48 #1” value came to 0. Besides, the “modulation upon carfilzomib-treatment 48 #2” value was found to be 0 and the “modulation upon carfilzomib-treatment 48 #3” value stood at 0.

Take IEHPSMSVY: the “modulation upon carfilzomib-treatment 24 #1” value is 1, the “modulation upon carfilzomib-treatment 24 #2” value is reported as 1, the “modulation upon carfilzomib-treatment 24 #3” value was 1 and the “modulation upon carfilzomib-treatment 48 #1” value was found to be 0. Also, the “modulation upon carfilzomib-treatment 48 #2” value was determined as 1 and the “modulation upon carfilzomib-treatment 48 #3” value was determined as 1.

Regarding LAFPGEMLL, the “modulation upon carfilzomib-treatment 24 #1” value is on record as 0, the “modulation upon carfilzomib-treatment 24 #2” value was found to be 0, the “modulation upon carfilzomib-treatment 24 #3” value is recorded as 0 and the “modulation upon carfilzomib-treatment 48 #1” value stood at 0. The “modulation upon carfilzomib-treatment 48 #2” value came out at 0 and the “modulation upon carfilzomib-treatment 48 #3” value is 0.

Turning to “LAFPGEMLL (listed as Homo sapiens) [SEQ ID NO: 107]”, the “modulation of peptide presentation upon carfilzomib treatment” value under setting [1] is “no significant modulation”.

In the case of NEFPVFDEF, the “modulation upon carfilzomib-treatment 24 #1” value worked out at 0, the “modulation upon carfilzomib-treatment 24 #2” value was determined as 0, the “modulation upon carfilzomib-treatment 24 #3” value was 0 and the “modulation upon carfilzomib-treatment 48 #1” value is reported as 0. Besides, the “modulation upon carfilzomib-treatment 48 #2” value was determined as 0 and the “modulation upon carfilzomib-treatment 48 #3” value was determined as 0.

For NEVIMTIGF, the “modulation upon carfilzomib-treatment 24 #1” value was determined as 0, the “modulation upon carfilzomib-treatment 24 #2” value turned out to be 0, the “modulation upon carfilzomib-treatment 24 #3” value is recorded as 0 and the “modulation upon carfilzomib-treatment 48 #1” value was found to be 0. Besides, the “modulation upon carfilzomib-treatment 48 #2” value was determined as 1 and the “modulation upon carfilzomib-treatment 48 #3” value is listed as 0.

Turning to RPHGGKSL, the “modulation upon carfilzomib-treatment 24 #1” value came out at 0, the “modulation upon carfilzomib-treatment 24 #2” value is on record as 0, the “modulation upon carfilzomib-treatment 24 #3” value was found to be 0 and the “modulation upon carfilzomib-treatment 48 #1” value came to 0. Besides, the “modulation upon carfilzomib-treatment 48 #2” value turned out to be 0 and the “modulation upon carfilzomib-treatment 48 #3” value is recorded as 0.

In the case of RYFKGPELL, the “modulation upon carfilzomib-treatment 24 #1” value turned out to be 0, the “modulation upon carfilzomib-treatment 24 #2” value turned out to be 0, the “modulation upon carfilzomib-treatment 24 #3” value is listed as 0 and the “modulation upon carfilzomib-treatment 48 #1” value worked out at 0. Besides, the “modulation upon carfilzomib-treatment 48 #2” value is listed as 0 and the “modulation upon carfilzomib-treatment 48 #3” value is given as 0.

On to RYLDLFTSF, for which the “modulation upon carfilzomib-treatment 24 #1” value is given as −1, the “modulation upon carfilzomib-treatment 24 #2” value is reported as −1, the “modulation upon carfilzomib-treatment 24 #3” value is on record as −1 and the “modulation upon carfilzomib-treatment 48 #1” value was found to be 0. In addition, the “modulation upon carfilzomib-treatment 48 #2” value is reported as −1 and the “modulation upon carfilzomib-treatment 48 #3” value was −1.

RYSPVLSRF: the “modulation upon carfilzomib-treatment 24 #1” value turned out to be 0, the “modulation upon carfilzomib-treatment 24 #2” value is reported as 0, the “modulation upon carfilzomib-treatment 24 #3” value came to 0 and the “modulation upon carfilzomib-treatment 48 #1” value turned out to be 0. In addition, the “modulation upon carfilzomib-treatment 48 #2” value was determined as 0 and the “modulation upon carfilzomib-treatment 48 #3” value was found to be 0.
